The text below walks through data of ChEMBL document CHEMBL5149985, “Discovery of cytotoxic natural products from Red Sea sponges: Structure and synthesis” (Eur J Med Chem, 2021).

The test system of experiment [1] is MDA-MB-231. Description: Anticancer activity against human MDA-MB-231 cells assessed as cell viability measured after 24 hrs by MTT assay. The class given is functional, cell-based. As to conditions: MDA-MB-231, 24 h. Background: Formazan colour is commonly taken as a measure of viable cells.
The test system of experiment [2] is HeLa. In words: Antiproliferative activity against human HeLa cells assessed as cell viability measured after 24 hrs by MTT assay. The class given is functional, cell-based.
The subject of experiment [3] is HCT-116. In words: Antiproliferative activity against human HCT-116 cells assessed as cell viability measured after 24 hrs by MTT assay. It is filed as functional, cell-based. As to conditions: HCT-116, 24 h.
Experiment [4] relates to MDA-MB-231. In words: Antimigratory activity against human MDA-MB-231 cells assessed as reduction in cell growth measured after 48 hrs by SRB assay. The class given is functional, cell-based. As to conditions: MDA-MB-231, 48 h. (In SRB staining, fixed cells bind dye roughly in proportion to their protein.)
Experiment [5] has as its system HCT-116. Description: Anticancer activity against human HCT-116 cells assessed as inhibition of cell growth incubated for 72 hrs by MTT assay. It is filed as functional, cell-based. As to conditions: HCT-116, 72 h.
The test system of experiment [6] is MCF7. In words: Anticancer activity against human MCF7 cells assessed as inhibition of cell growth incubated for 24 hrs by MTT assay. It is filed as functional, cell-based. As to conditions: MCF7, 24 h.
Experiment [7] deals with A549. Description: Anticancer activity against human A549 cells assessed as inhibition of cell growth incubated for 24 hrs by MTT assay. It is filed as functional, cell-based. As to conditions: A549, 24 h.
Experiment [8] has as its system HeLa. Description: Anticancer activity against human HeLa cells assessed as inhibition of cell growth incubated for 24 hrs by MTT assay. It is filed as functional, cell-based.
In experiment [9] the test system is A549. In words: cells. As to conditions: Homo sapiens, A549, 72 h.
Description: Anticancer activity against human A549 cells assessed as inhibition of cell growth measured after 72 hrs by SRB assay
Experiment [10] has as its system MDA-MB-231. In words: cells. As to conditions: Homo sapiens, MDA-MB-231, 72 h.
Description: Anticancer activity against human MDA-MB-231 cells assessed as inhibition of cell growth measured after 72 hrs by SRB assay
Experiment [11] deals with HT-29. In words: cells. As to conditions: Homo sapiens, HT-29, 72 h.
Description: Anticancer activity against human HT-29 cells assessed as inhibition of cell growth measured after 72 hrs by SRB assay
The test system of experiment [12] is HT-29. Description: Anticancer activity against human HT-29 cells assessed as cell growth inhibition by crystal violet staining based assay. It is filed as functional.
The next experiment relates to OVCAR-3. Description: Anticancer activity against human OVCAR-3 cells assessed as cell growth inhibition by crystal violet staining based assay. The class given is functional.
For a further experiment, the system named is MM1.S. In words: Anticancer activity against human MM1.S cells assessed as cell growth inhibition by MTT assay. It is filed as functional, cell-based.
Experiment [13] has as its system MDA-MB-231. Description: Anticancer activity against human MDA-MB-231 cells assessed as reduction in cell viability measured after 72 hrs by MTT assay. As to conditions: MDA-MB-231, 72 h. It is filed as functional, cell-based.
Experiment [14] has as its system HeLa. Description: Anticancer activity against human HeLa cells assessed as reduction in cell viability measured after 72 hrs by MTT assay.
Experiment [15] deals with HCT-116. In words: Anticancer activity against human HCT-116 cells assessed as reduction in cell viability measured after 72 hrs by MTT assay. As to conditions: HCT-116, 72 h.
Experiment [16] deals with MCF7. Description: Anticancer activity against human MCF7 cells assessed as inhibition of cell growth incubated for 72 hrs by MTT assay. It is filed as functional, cell-based. As to conditions: MCF7, 72 h.
Experiment [17] relates to MDA-MB-231. Description: Anticancer activity against human MDA-MB-231 cells assessed as inhibition of cell growth incubated for 72 hrs by MTT assay. The class given is functional, cell-based. As to conditions: MDA-MB-231, 72 h.
The nature of experiment [18]: Inhibition of actin (unknown origin) polymerization at 100 nM incubated for 20 mins in presence of ATP by ELISA analysis relative to control. As to conditions: Homo sapiens. (ELISA stands for enzyme-linked immunosorbent assay.)
Another experiment is filed under the species Homo sapiens. Description: Inhibition of actin (unknown origin) polymerization at 1 uM incubated for 20 mins in presence of ATP by ELISA analysis relative to control.
A short description of experiment [19]: Inhibition of actin (unknown origin) polymerization incubated for 20 mins in presence of ATP by ELISA analysis. Also on record: species or system Homo sapiens.
Experiment [20] deals with MCF7. Description: Potency index, ratio of latrunculin IC50 to test compound IC50 for cytotoxicity against human MCF7 cells. It is filed as functional.
Experiment [21] relates to L5178Y. In words: Anticancer activity against mouse L5178Y cells assessed as reduction in cell growth at 3 uG by [3H] Thymidine assay relative to control. The class given is functional. As to conditions: dose 3 µg.
The subject of experiment [22] is L5178Y. Description: Anticancer activity against mouse L5178Y cells assessed as reduction in cell growth at 10 uG by [3H] Thymidine assay relative to control. It is filed as functional. As to conditions: dose 10 µg.
Experiment [23] has as its system L5178Y. In words: Anticancer activity against mouse L5178Y cells assessed as reduction in cell growth by [3H] Thymidine assay relative to control. The class given is functional, cell-based.
Experiment [24] relates to MDA-MB-231. In words: Antimigratory activity against human MDA-MB-231 cells assessed as inhibition of cell migration at 10 uM incubated for 24 hrs by scratch wound healing assay relative to control. It is filed as functional. Also on record: scale not given: the % may be the effect or the level left.
Experiment [25] relates to MDA-MB-231. Description: Antimigratory activity against human MDA-MB-231 cells assessed as inhibition of cell migration at 2 uM incubated for 24 hrs by […] relative to control. It is filed as functional. On the set-up: scale not given: the % may be the effect or the level left.
Another experiment concerns HepG2. In words: Anticancer activity against human HepG2 cells assessed as inhibition of cell growth incubated for 48 hrs by crystal violet staining based microplate reader analysis. It is filed as functional. As to conditions: HepG2, 48 h.

One may read the IC50 as the point on the concentration scale where inhibition reaches its midpoint. As to `COC1=C(Br)C[C@]2(OC=C1Br)ON=C(C(=O)NCCCOc1c(Br)cc(CCNC=C3C(=O)C=CC3=O)cc1Br)[C@@H]2O`, the IC50 came out at 0.29 µM with MDA-MB-231 [1], 2.1 µM in the experiment on HeLa [2], 5.1 µM in the experiment with HCT-116 [3] and 0.31 µM in the experiment on MDA-MB-231 [4].

Consider `CC(C)[C@@H](C)/C=C/[C@@H](C)[C@H]1CC[C@@]23O[C@@]24C(=O)C[C@H]2CC(=O)CC[C@]2(C)[C@H]4CC[C@]13C`, for which the IC50 in the experiment on HCT-116 [5] came out at 45 µM.

As for `C#C/C=C\CCCCCCCCC#CCCC(=O)NCCc1ccccc1`, the IC50 in the experiment on MCF7 [6] was determined as 19.4 µM; in the experiment on A549 [7] it was 30 µM; in the experiment on HeLa [8], 4.1 µM.

For the compound `CC[C@H](C)[C@@H]1NC(=O)[C@@H](C(O)C(C)C)NC(=O)[C@H](Cc2ccc(O)cc2)NC(=O)[C@H]([C@H](C)O)NC(=O)[C@@H](C)NC(=O)[C@H](CC(C)C)NC(=O)[C@H](Cc2ccc(O)cc2)NC(=O)[C@H](Cc2ccccc2)NC1=O` (some centres not stated), the figures for the IC50 in the experiment with A549 [9], in the experiment with MDA-MB-231 [10] and in the experiment on HT-29 [11] were 29 µM, 29 µM and 30 µM, respectively.

Consider `O=C1Nc2cc(Br)ccc2[C@@]1(c1cc2ccccc2[nH]1)c1c[nH]c2ccccc12`, for which the figures for the IC50 in the experiment on HT-29 [12], in the experiment on OVCAR-3 and in the experiment on MM1.S were 12.5 µM, 9 µM and 11 µM, respectively.

For `O=c1[nH]cc(F)c(=O)[nH]1` [FLUOROURACIL], the values for the IC50 in the experiment with MDA-MB-231 [13], with HeLa [14] and in the experiment with HCT-116 [15] were 13 µM, 12.3 µM and 4.6 µM, respectively.

In general, inhibition refers to the relative decrease from the control value, in per cent. As to `C/C1=C/C(=O)O[C@@H]2C[C@@H](CC[C@H](C)/C=C\C=C\CC1)O[C@@](O)([C@@H]1CSC(=O)N1CO)C2`, the IC50 came out at 0.12 µM in the experiment with MCF7 [16], 2.99 µM with MDA-MB-231 [17] and 0.21 µM in [19]. The figures for the inhibition (in [18]; in the experiment listed under Homo sapiens) were 35% and 90%, respectively. Further, the “Ratio IC50” value with MCF7 [20] is 4.

`CC(C)[C@@H](C)/C=C/[C@@H](C)[C@H]1CC[C@H]2C3=C(CC[C@]12C)[C@@]1(C)CC[C@H](O)CC1=CC3=O`: the IC50 in the experiment with HCT-116 [5] was determined as 40 µM.

`CC1(C)CCC[C@]2(C)[C@H]3C[C@@H](O)[C@]4(C)C5=C(COC5=O)[C@@H](O)C[C@H]4[C@]3(C)CC[C@@H]12`: the “inhibition (INH)” value with L5178Y [21] amounted to 40.5%; in the experiment with L5178Y [22] it was 55.3%. For the same compound, in the experiment on L5178Y [23], the IC50 worked out at 0.0075 µM.

For `C/C1=C/C(=O)O[C@@H]2C[C@@H](CC[C@H](C)/C=C\C=C\CC1)O[C@@](OCCc1ccccc1)([C@@H]1CSC(=O)N1)C2`, the figures for the IC50 (in the experiment with MCF7 [16]; in the experiment on MDA-MB-231 [17]; in experiment [19]) were 0.1 µM, 2.71 µM and 0.184 µM, respectively. Further, the figures for the inhibition (in [18]; in the experiment listed under Homo sapiens) were 31% and 94%, respectively. In the experiment on MCF7 [20], the “Ratio IC50” value is listed as 4.8.

As for `CCOC(=O)NCCCCNC(=O)C1=NO[C@]2(C=C(Br)C(OC)=C(Br)[C@@H]2O)C1` [SUBEREAMOLLINE A], the concentration for half-maximal inhibition (IC50) in the experiment on MDA-MB-231 [1] was determined as 0.4 µM. Besides, the Activity in the experiment with MDA-MB-231 [24] is listed as 52%; in the experiment on MDA-MB-231 [25] it was 38%.

Turning to `CC1=CCC2C(CC[C@@]2(C)O)C(C)(C)[C@@H]1CC[C@H]1[C@@](C)(O)CCC2OC(C)(C)C(=O)CC[C@@]21C` (some centres not stated), the IC50 in the experiment on HepG2 came out at 0.0069 µM.
